Laboratory results published in patent publication US9980943B2, “Methods of treating muscular dystrophy” (BOARD OF REGENTS OF THE NEVADA SYSTEM OF HIGHER EDUCATION, …, priority 2013, dated 2018).

Experiments:
Assay type in all cases: cell-based, mouse
[1] = system: α7 integrin (LacZ reporter in α7βgal+/− myoblasts); test: Myoblast α7+/LacZ integrin FDG assay (Burkin assay in myoblasts, 96-well); conditions: 96-well; for Burkin Assay in Myoblasts, value relative to DMSO: SU9516 analogs, N=3-6; for Burkin Assay in Myoblasts, signal relative to DMSO: α7+/LacZ myoblasts
[2] = system: α7 integrin (LacZ reporter in α7+/LacZ myotubes); test: Myotube α7 integrin FDG assay (Burkin assay in myotubes, 96-well); conditions: for Burkin Assay in Myotubes, value relative to DMSO: SU9516 analogs, 96-well, N=3-6
[3] = system: β-galactosidase in CMV-LacZ C2C12 myotubes; test: CMV-LacZ secondary screen in C2C12 myotubes (β-Gal stabilizing assay); conditions: for CMV-LACZ in Myotubes, value relative to DMSO: SU9516 analogs, C2C12 CMV-LacZ, N=2; for CMV-LACZ in Myotubes, signal relative to DMSO: C2C12 CMV-LacZ myotubes, fold relative to DMSO
How it was run: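 First, C2C12 myoblasts were transfected with a linearized CMV-LACZ vector and clonal lines selected by FDG β-gal assay. Then cells were exposed to compounds at 0.5, 1, 5, 10, 20 and 40 μM in 96-well format, two replicates each, and β-gal measured.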

[4] = system: β-galactosidase in CMV-LacZ C2C12 myoblasts; test: CMV-LacZ secondary screen in C2C12 myoblasts (β-Gal stabilizing assay); conditions: for CMV-LACZ in Myoblasts, value relative to DMSO: SU9516 analogs, C2C12 CMV-LacZ, N=2; for CMV-LACZ in Myoblasts (β-galactosidase activity relative to DMSO): CMV-LacZ C2C12 myoblasts
How it was run: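 β-Gal level was the read-out, measured in a clonal C2C12 line expressing LacZ from a CMV promoter. Dose-response curves used six concentrations, 0.5 μM up to 40 μM, with duplicate points.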

Structure (SMILES): COc1ccc(C(=O)/C=C2/C(=O)Nc3ccccc32)cc1 [MLS001163848-01]
- Burkin Assay in Myoblasts, value relative to DMSO ([1]; 0.5 uM): 1.002
- Burkin Assay in Myoblasts, value relative to DMSO ([1]; 1 uM): 0.8906
- Burkin Assay in Myoblasts, value relative to DMSO ([1]; 5 uM): 0.4854
- Burkin Assay in Myoblasts, value relative to DMSO ([1]; 10 uM): 0.3141
- Burkin Assay in Myoblasts, value relative to DMSO ([1]; 20 uM): 0.297
- Burkin Assay in Myoblasts, value relative to DMSO ([1]; 40 uM): 0.1444
- Burkin Assay in Myotubes, value relative to DMSO ([2]; 0.5 uM): 1.0964
- Burkin Assay in Myotubes, value relative to DMSO ([2]; 1 uM): 1.045
- Burkin Assay in Myotubes, value relative to DMSO ([2]; 5 uM): 0.9587
- Burkin Assay in Myotubes, value relative to DMSO ([2]; 10 uM): 0.7469
- Burkin Assay in Myotubes, value relative to DMSO ([2]; 20 uM): 0.6878
- Burkin Assay in Myotubes, value relative to DMSO ([2]; 40 uM): 0.4876
- CMV-LACZ in Myotubes, value relative to DMSO ([3]; 0.5 uM): 1.2133
- CMV-LACZ in Myotubes, value relative to DMSO ([3]; 1 uM): 0.9638
- CMV-LACZ in Myotubes, value relative to DMSO ([3]; 5 uM): 1.1937
- CMV-LACZ in Myotubes, value relative to DMSO ([3]; 10 uM): 4.2586
- CMV-LACZ in Myotubes, value relative to DMSO ([3]; 20 uM): 6.7729
- CMV-LACZ in Myotubes, value relative to DMSO ([3]; 40 uM): 6.8624
- CMV-LACZ in Myoblasts, value relative to DMSO ([4]; 0.5 uM): 1.1146
- CMV-LACZ in Myoblasts, value relative to DMSO ([4]; 1 uM): 0.9620
- CMV-LACZ in Myoblasts, value relative to DMSO ([4]; 5 uM): 0.9336
- CMV-LACZ in Myoblasts, value relative to DMSO ([4]; 10 uM): 1.0762
- CMV-LACZ in Myoblasts, value relative to DMSO ([4]; 20 uM): 2.1030
- CMV-LACZ in Myoblasts, value relative to DMSO ([4]; 40 uM): 2.2215

Structure (SMILES): C#CC1(O)CCC2C3CCC4=C/C(=N/OCC(=O)NCC(=O)NC(C(=O)O)C(C)C)CC[C@]4(C)C3CC[C@@]21C (stereo partly drawn) [MLS001163859-01]
- Burkin Assay in Myoblasts, signal relative to DMSO ([1]; 0.5 uM): 0.9786
- Burkin Assay in Myoblasts, signal relative to DMSO ([1]; 1 uM): 1.09
- Burkin Assay in Myoblasts, signal relative to DMSO ([1]; 5 uM): 1.055
- Burkin Assay in Myoblasts, signal relative to DMSO ([1]; 10 uM): 1.024
- Burkin Assay in Myoblasts, signal relative to DMSO ([1]; 20 uM): 0.9208
- Burkin Assay in Myoblasts, signal relative to DMSO ([1]; 40 uM): 0.928
- Burkin Assay in Myotubes, α7 integrin LacZ reporter signal relative to DMSO ([2]; 0.5 uM): 1.132
- Burkin Assay in Myotubes, α7 integrin LacZ reporter signal relative to DMSO ([2]; 1 uM): 1.281
- Burkin Assay in Myotubes, α7 integrin LacZ reporter signal relative to DMSO ([2]; 5 uM): 1.385
- Burkin Assay in Myotubes, α7 integrin LacZ reporter signal relative to DMSO ([2]; 10 uM): 1.249
- Burkin Assay in Myotubes, α7 integrin LacZ reporter signal relative to DMSO ([2]; 20 uM): 1.118
- Burkin Assay in Myotubes, α7 integrin LacZ reporter signal relative to DMSO ([2]; 40 uM): 1.058
- CMV-LACZ in Myotubes, signal relative to DMSO ([3]; 0.5 uM): 0.8756
- CMV-LACZ in Myotubes, signal relative to DMSO ([3]; 1 uM): 1.1326
- CMV-LACZ in Myotubes, signal relative to DMSO ([3]; 5 uM): 1.0856
- CMV-LACZ in Myotubes, signal relative to DMSO ([3]; 10 uM): 1.1727
- CMV-LACZ in Myotubes, signal relative to DMSO ([3]; 20 uM): 1.0965
- CMV-LACZ in Myotubes, signal relative to DMSO ([3]; 40 uM): 1.2482
- CMV-LACZ in Myoblasts (β-galactosidase activity relative to DMSO) ([4]; 0.5 uM): 1.1113
- CMV-LACZ in Myoblasts (β-galactosidase activity relative to DMSO) ([4]; 1 uM): 1.1684
- CMV-LACZ in Myoblasts (β-galactosidase activity relative to DMSO) ([4]; 5 uM): 1.2009
- CMV-LACZ in Myoblasts (β-galactosidase activity relative to DMSO) ([4]; 10 uM): 1.1812
- CMV-LACZ in Myoblasts (β-galactosidase activity relative to DMSO) ([4]; 20 uM): 0.7593
- CMV-LACZ in Myoblasts (β-galactosidase activity relative to DMSO) ([4]; 40 uM): 0.8104

Structure (SMILES): COc1ccc(C(=O)/C=C2/C(=O)Nc3ccccc32)cc1OC [MLS001163860-01]
- Burkin Assay in Myoblasts, value relative to DMSO ([1]; 0.5 uM): 0.9494
- Burkin Assay in Myoblasts, value relative to DMSO ([1]; 1 uM): 0.8457
- Burkin Assay in Myoblasts, value relative to DMSO ([1]; 5 uM): 0.5793
- Burkin Assay in Myoblasts, value relative to DMSO ([1]; 10 uM): 0.4922
- Burkin Assay in Myoblasts, value relative to DMSO ([1]; 20 uM): 0.1722
- Burkin Assay in Myoblasts, value relative to DMSO ([1]; 40 uM): 0.2347
- Burkin Assay in Myotubes, value relative to DMSO ([2]; 0.5 uM): 1.009
- Burkin Assay in Myotubes, value relative to DMSO ([2]; 1 uM): 0.9404
- Burkin Assay in Myotubes, value relative to DMSO ([2]; 5 uM): 0.9223
- Burkin Assay in Myotubes, value relative to DMSO ([2]; 10 uM): 1.138
- Burkin Assay in Myotubes, value relative to DMSO ([2]; 20 uM): 0.862
- Burkin Assay in Myotubes, value relative to DMSO ([2]; 40 uM): 1.209
- CMV-LACZ in Myotubes, value relative to DMSO ([3]; 0.5 uM): 1.0352
- CMV-LACZ in Myotubes, value relative to DMSO ([3]; 1 uM): 1.1562
- CMV-LACZ in Myotubes, value relative to DMSO ([3]; 5 uM): 1.1250
- CMV-LACZ in Myotubes, value relative to DMSO ([3]; 10 uM): 1.2757
- CMV-LACZ in Myotubes, value relative to DMSO ([3]; 20 uM): 1.3880
- CMV-LACZ in Myotubes, value relative to DMSO ([3]; 40 uM): 1.4490
- CMV-LACZ in Myoblasts, value relative to DMSO ([4]; 0.5 uM): 0.9350
- CMV-LACZ in Myoblasts, value relative to DMSO ([4]; 1 uM): 0.8230
- CMV-LACZ in Myoblasts, value relative to DMSO ([4]; 5 uM): 0.9610
- CMV-LACZ in Myoblasts, value relative to DMSO ([4]; 10 uM): 1.1417
- CMV-LACZ in Myoblasts, value relative to DMSO ([4]; 20 uM): 0.3425
- CMV-LACZ in Myoblasts, value relative to DMSO ([4]; 40 uM): 0.6488
